These results are taken from patent US7678809B2 (priority 1999, dated 2010).

As usually defined, the Ki is a dissociation constant, usually derived from enzyme kinetics or from competition with a known ligand.

What all share (type): biochemical
Assay [1] has as its target T1, human opioid receptor-like receptor (ORL-1) (Homo sapiens, UniProt P41146).
T1 construct: host or cells: HEK-293
To be noted: read-out: Nociceptin Affinity calc Ki.

In another assay the target is Mu opioid receptor (Homo sapiens, UniProt P35372). To be noted: read-out: calc Ki (nM) μ.
Chain of Mu opioid receptor (P35372 whole entry): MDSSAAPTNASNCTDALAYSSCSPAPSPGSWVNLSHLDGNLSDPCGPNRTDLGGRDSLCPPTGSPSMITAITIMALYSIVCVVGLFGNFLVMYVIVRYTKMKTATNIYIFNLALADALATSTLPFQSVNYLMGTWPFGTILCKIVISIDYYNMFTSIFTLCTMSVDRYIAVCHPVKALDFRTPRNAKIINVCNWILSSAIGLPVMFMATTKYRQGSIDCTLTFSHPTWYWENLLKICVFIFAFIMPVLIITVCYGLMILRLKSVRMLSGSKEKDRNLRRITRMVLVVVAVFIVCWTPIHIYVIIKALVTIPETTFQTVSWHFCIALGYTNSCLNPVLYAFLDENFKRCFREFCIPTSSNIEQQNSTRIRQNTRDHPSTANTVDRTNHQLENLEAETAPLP
The target of a further assay is kappa opioid receptor (Homo sapiens, UniProt P41145). As to conditions: read-out: calc Ki (nM) k.
Chain of kappa opioid receptor (P41145 whole entry): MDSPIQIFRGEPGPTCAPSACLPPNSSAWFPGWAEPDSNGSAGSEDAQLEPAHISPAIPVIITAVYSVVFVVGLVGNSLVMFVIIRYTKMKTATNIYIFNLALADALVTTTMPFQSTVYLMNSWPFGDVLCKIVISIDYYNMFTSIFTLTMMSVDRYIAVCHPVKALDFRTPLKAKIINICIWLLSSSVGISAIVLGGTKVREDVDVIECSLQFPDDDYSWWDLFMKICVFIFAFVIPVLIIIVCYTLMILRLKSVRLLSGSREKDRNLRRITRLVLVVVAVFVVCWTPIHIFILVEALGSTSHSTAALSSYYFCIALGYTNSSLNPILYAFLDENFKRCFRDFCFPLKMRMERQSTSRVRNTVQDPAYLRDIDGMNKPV
The target of a further assay is delta opioid receptor (Homo sapiens, UniProt P41143). To be noted: read-out: calc Ki (nM) δ2.
Chain of delta opioid receptor (P41143 whole entry): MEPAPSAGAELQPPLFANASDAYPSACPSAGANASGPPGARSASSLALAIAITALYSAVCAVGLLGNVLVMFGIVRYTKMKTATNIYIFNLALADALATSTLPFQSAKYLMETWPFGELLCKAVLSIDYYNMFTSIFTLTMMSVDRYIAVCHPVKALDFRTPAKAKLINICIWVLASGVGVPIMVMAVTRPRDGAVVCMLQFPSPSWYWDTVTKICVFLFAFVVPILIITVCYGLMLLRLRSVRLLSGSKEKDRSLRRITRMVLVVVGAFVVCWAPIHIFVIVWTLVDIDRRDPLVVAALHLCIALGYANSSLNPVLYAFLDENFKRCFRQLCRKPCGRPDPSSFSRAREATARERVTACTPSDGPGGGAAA

T1 sequence (P41146 whole entry): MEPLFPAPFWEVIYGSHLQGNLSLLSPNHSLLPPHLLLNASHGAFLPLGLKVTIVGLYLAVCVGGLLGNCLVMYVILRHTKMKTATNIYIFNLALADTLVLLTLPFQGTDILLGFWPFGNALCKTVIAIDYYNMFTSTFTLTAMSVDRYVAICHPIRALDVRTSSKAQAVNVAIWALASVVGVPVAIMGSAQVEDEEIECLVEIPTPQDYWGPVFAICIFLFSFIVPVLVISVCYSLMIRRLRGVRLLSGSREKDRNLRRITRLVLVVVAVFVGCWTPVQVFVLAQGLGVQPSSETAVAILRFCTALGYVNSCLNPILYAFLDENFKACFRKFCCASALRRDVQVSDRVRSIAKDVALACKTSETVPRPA

As to “1-[4-(4-propylcyclohexane)-4-piperidinyl]-3-[1-oxo-ethyl]-1,3-dihydro-2H-1,3-benzamidazol-2-one”, the Ki in assay [1] is 464 nM; at Mu opioid receptor, 23.2 nM; on kappa opioid receptor it was 1600 nM; on delta opioid receptor, above 10000 nM.
For the compound `O=c1[nH]c2ccccc2n1C1CCN(CCCC(c2ccc(F)cc2)c2ccc(F)cc2)CC1` [1-[4-(4,4-difluorophenylbutyl)-4-piperidinyl]-1,3-dihydro-2H-1,3-benzamidazol-2-one], in assay [1], the Ki is 420 nM.
For “1-[4-(4-propyl-1,2-cyclohexene)-4-piperidinyl]-1,3-dihydro-2H-1,3-benzamidazol-2-one”, the Ki in assay [1] is 469 nM; on Mu opioid receptor it was 265 nM; on kappa opioid receptor, 1500 nM; on delta opioid receptor it was 1220 nM.
